Target: recombinant full-length human hydroxyacid oxidase 1 (HAO1), the equivalents of hGOX (Homo sapiens (Human), UniProt Q9UJM8)
Assay: In-vitro human glycolate oxidase (hGOX) assay (Amplex red fluorescence)
Type: biochemical
Conditions: 6 nM recombinant human GO, 85 μM glycolate, 10 min preincubation
Experimental: The in-vitro glycolate oxidase assay was performed using recombinant full-length human hydroxyacid oxidase 1 (HAO1), the equivalents of hGOX. […] Purified HAO1 was dissolved in assay buffer consisting of 10 mM NaCl, 110 mM KCl, 2 mM MgCl2, 50 mM HEPES (pH 7.4), and 0.01% Triton™ X-100.
The plates were incubated for 10 min at room temperature, at which point Amplex red reagent (50 μM) was added.
The fluorescence intensity signal was measured on a VariosKan LUX instrument using an excitation of 560 nm and an emission of 590 nm. The IC50 values were calculated using Graphpad Prism. The fluorescence signal of wells containing only DMSO was defined as 100% GO activity, while the fluorescence signal without the glycolate substrate was defined as 0% GO activity.

Sequence of recombinant full-length human hydroxyacid oxidase 1 (HAO1), the equivalents of hGOX (Q9UJM8 whole entry): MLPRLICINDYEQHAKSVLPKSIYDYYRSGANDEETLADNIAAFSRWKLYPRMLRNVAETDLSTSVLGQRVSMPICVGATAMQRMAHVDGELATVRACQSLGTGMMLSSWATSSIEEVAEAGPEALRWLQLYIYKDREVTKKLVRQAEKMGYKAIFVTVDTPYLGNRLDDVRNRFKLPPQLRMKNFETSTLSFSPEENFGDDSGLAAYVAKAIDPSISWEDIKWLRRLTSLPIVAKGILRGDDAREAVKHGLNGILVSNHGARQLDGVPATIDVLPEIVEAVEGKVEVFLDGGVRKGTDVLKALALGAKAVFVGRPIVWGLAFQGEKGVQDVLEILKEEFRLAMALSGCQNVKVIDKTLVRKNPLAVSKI

Row | IC50 [nM] | SMILES
1 | 2 | CS(=O)(=O)c1ccc(C#Cc2cc(Oc3[nH]nnc3C(=O)O)ccc2F)cc1 [Example 266, 5-(4-Fluoro-3-(2-(4-(methylsulfonyl)phenyl)ethynyl)phenoxy)-1H-1,2,3-triazole-4-carboxylic Acid]
2 | 2 | Cn1ncc2cc(C#Cc3cccc(Oc4[nH]nnc4C(=O)O)c3)ccc21 [Example 317, 5-(3-(2-(1-Methyl-1H-indazol-5-yl)ethynyl)phenoxy)-1H-1,2,3-triazole-4-carboxylic Acid]
3 | 9 | O=C(O)c1nn[nH]c1Oc1cccc(C#CCC2CC(F)(F)C2)c1 [Example 367, 5-(3-(3-(3,3-Difluorocyclobutyl)prop-1-ynyl)phenoxy)-1H-1,2,3-triazole-4-carboxylic Acid]
4 | 1 | O=C(O)c1nn[nH]c1Oc1ccc(C#Cc2ccc3[nH]ncc3c2)cc1 [Example 108, 5-(4-(2-(1H-Indazol-5-yl)ethynyl)phenoxy)-1H-1,2,3-triazole-4-carboxylic Acid]
5 | > 1000 | Cn1cc(Oc2[nH]nnc2C(=O)O)cc(C#CCC2CC2)c1=O [Example 368, 5-(5-(3-Cyclopropylprop-1-ynyl)-1,6-dihydro-1-methyl-6-oxopyridin-3-yloxy)-1H-1,2,3-triazole-4-carboxylic Acid]
6 | 3 | O=C(O)c1nn[nH]c1Oc1cccc(C#Cc2ccccn2)c1 [Example 311, 5-(3-(2-(Pyridin-2-yl)ethynyl)phenoxy)-1H-1,2,3-triazole-4-carboxylic Acid]
7 | 2 | N#Cc1cccc(C#Cc2cc(F)cc(Oc3[nH]nnc3C(=O)O)c2)c1 [Example 277, 4-(3-((3-Cyanophenyl)ethynyl)-5-fluorophenoxy)-1H-1,2,3-triazole-5-carboxylic Acid]
8 | 98 | O=C(O)c1nn[nH]c1Cc1cccc(C#CCC2CC2)c1 [Example 365, 5-(3-(3-Cyclopropylprop-1-ynyl)benzyl)-1H-1,2,3-triazole-4-carboxylic Acid]
9 | 7 | O=C(O)c1nn[nH]c1Oc1ccc(C#Cc2ccccc2)cc1 [Example 138, 5-(4-(2-Phenylethynyl)phenoxy)-1H-1,2,3-triazole-4-carboxylic Acid]
10 | 2 | CS(=O)(=O)c1cccc(C#Cc2ccc(Oc3[nH]nnc3C(=O)O)cc2F)c1 [Example 273, 5-(3-Fluoro-4-(2-(3-(methylsulfonyl)phenyl)ethynyl)phenoxy)-1H-1,2,3-triazole-4-carboxylic Acid]
11 | 1 | O=C(O)c1nn[nH]c1Oc1cccc(C#Cc2cccc3[nH]ncc23)c1 [Example 328, 5-(3-(2-(1H-Indazol-4-yl)ethynyl)phenoxy)-1H-1,2,3-triazole-4-carboxylic Acid]
12 | 5 | Cn1nccc1C#Cc1ccc(Oc2[nH]nnc2C(=O)O)cc1 [Example 321, 5-(4-(2-(1-Methyl-1H-pyrazol-5-yl)ethynyl)phenoxy)-1H-1,2,3-triazole-4-carboxylic Acid]
13 | > 1000 | CCOC(=O)c1c(Oc2ccc(C#CCC3CC3)cc2)n[nH]c1C [Example 360, Ethyl 3-(4-(3-cyclopropylprop-1-ynyl)phenoxy)-5-methyl-1H-pyrazole-4-carboxylate]
14 | 0.4 | O=C(O)c1nn[nH]c1Oc1ccc(C#Cc2ccc(Cl)cc2)cc1 [Example 290, 5-(4-(2-(4-Chlorophenyl)ethynyl)phenoxy)-1H-1,2,3-triazole-4-carboxylic Acid]
15 | 34 | O=C1CCC(C#Cc2cccc(Oc3[nH]nnc3C(=O)O)c2)CC1 [Example 352, 5-(3-((4-Oxocyclohexyl)ethynyl)phenoxy)-1H-1,2,3-triazole-4-carboxylic Acid]
16 | 20 | O=C(O)c1nn[nH]c1Oc1ccc(C#Cc2ncc[nH]2)cc1 [Example 331, 5-(4-(2-(1H-Imidazol-2-yl)ethynyl)phenoxy)-1H-1,2,3-triazole-4-carboxylic Acid]
17 | 8 | O=C(O)c1nn[nH]c1Oc1cccc(C#CC2CCCCC2)c1 [Example 37, 5-(3-(2-Cyclohexylethynyl)phenoxy)-1H-1,2,3-triazole-4-carboxylic Acid]
18 | 4 | Cn1nccc1C#Cc1cccc(Oc2[nH]nnc2C(=O)O)c1 [Example 322, 5-(3-(2-(1-Methyl-1H-pyrazol-5-yl)ethynyl)phenoxy)-1H-1,2,3-triazole-4-carboxylic Acid]
19 | 3 | Cc1cccc(C#Cc2cccc(Oc3[nH]nnc3C(=O)O)c2)n1 [Example 294, 5-(3-(2-(6-Methylpyridin-2-yl)ethynyl)phenoxy)-1H-1,2,3-triazole-4-carboxylic Acid]
20 | 90 | C#Cc1ccc(Oc2[nH]nnc2C(=O)O)cc1 [Example 2, 5-(4-Ethynylphenoxy)-1H-1,2,3-triazole-4-carboxylic Acid]
21 | 4 | COc1cccc(C#Cc2cccc(Oc3[nH]nnc3C(=O)O)c2)c1 [Example 287, 5-(3-(2-(3-Methoxyphenyl)ethynyl)phenoxy)-1H-1,2,3-triazole-4-carboxylic Acid]

Row | IC50 [nM] | SMILES
22 | 94 | O=C(O)c1nn[nH]c1Cc1ccc(C#CCC2CC2)cc1 [Example 364, 5-(4-(3-Cyclopropylprop-1-ynyl)benzyl)-1H-1,2,3-triazole-4-carboxylic Acid]
23 | 2 | Cn1ncc2ccc(C#Cc3cccc(Oc4[nH]nnc4C(=O)O)c3)cc21 [Example 319, 5-(3-(2-(1-Methyl-1H-indazol-6-yl)ethynyl)phenoxy)-1H-1,2,3-triazole-4-carboxylic Acid]
24 | 1 | O=C(O)c1nn[nH]c1Oc1cccc(C#Cc2ccc(F)cc2)c1 [Example 289, 5-(3-(2-(4-Fluorophenyl)ethynyl)phenoxy)-1H-1,2,3-triazole-4-carboxylic Acid]
25 | 10 | O=C(O)c1nn[nH]c1Oc1ccc(C#Cc2ccccn2)cc1 [Example 308, 5-(4-(2-(Pyridin-2-yl)ethynyl)phenoxy)-1H-1,2,3-triazole-4-carboxylic Acid]
26 | 7 | O=C(O)c1nn[nH]c1Oc1cccc(C#Cc2ncc[nH]2)c1 [Example 332, 5-(3-(2-(1H-Imidazol-2-yl)ethynyl)phenoxy)-1H-1,2,3-triazole-4-carboxylic Acid]
27 | 12 | CC#Cc1ccc(Oc2[nH]nnc2C(=O)O)cc1 [Example 5, 5-(4-(Prop-1-ynyl)phenoxy)-1H-1,2,3-triazole-4-carboxylic Acid]
28 | > 1000 | CCOC(=O)c1c(Oc2cccc(C#CCC3CC3)c2)n[nH]c1C [Example 358, Ethyl 3-(3-(3-cyclopropylprop-1-ynyl)phenoxy)-5-methyl-1H-pyrazole-4-carboxylate]
29 | > 1000 | CCOC(=O)c1nn[nH]c1Oc1cccc(C#CCC(C)(C)C)c1 [Example 371, Ethyl 5-(3-(4,4-dimethylpent-1-ynyl)phenoxy)-1H-1,2,3-triazole-4-carboxylate]
30 | 3 | CS(=O)(=O)c1cccc(C#Cc2cc(F)cc(Oc3[nH]nnc3C(=O)O)c2)c1 [Example 275, 5-(3-Fluoro-5-(2-(3-(methylsulfonyl)phenyl)ethynyl)phenoxy)-1H-1,2,3-triazole-4-carboxylic Acid]
31 | > 1000 | CC(C)CC#Cc1cccc([S+]([O-])c2[nH]nnc2C(=O)O)c1 (centres unmarked) [Example 374, 5-(3-(4-Methylpent-1-ynyl)phenylsulfinyl)-1H-1,2,3-triazole-4-carboxylic Acid]
32 | 40 | CC(C)(F)CC#Cc1cccc(Oc2[nH]nnc2C(=O)O)c1 [Example 378, 5-(3-(4-Fluoro-4-methylpent-1-ynyl)phenoxy)-1H-1,2,3-triazole-4-carboxylic Acid]
33 | 1 | Cn1ccc(C#Cc2cccc(Oc3[nH]nnc3C(=O)O)c2)cc1=O [Example 257, 4-(3-((1-Methyl-2-oxo-1,2-dihydropyridin-4-yl)ethynyl)phenoxy)-1H-1,2,3-triazole-5-carboxylic Acid]
34 | 1 | O=C(O)c1nn[nH]c1Oc1cccc(C#Cc2ccc3cn[nH]c3c2)c1 [Example 330, 5-(3-(2-(1H-Indazol-6-yl)ethynyl)phenoxy)-1H-1,2,3-triazole-4-carboxylic Acid]
35 | 2 | CS(=O)(=O)c1cccc(C#Cc2cc(Oc3[nH]nnc3C(=O)O)ccc2F)c1 [Example 267, 5-(4-Fluoro-3-(2-(3-(methylsulfonyl)phenyl)ethynyl)phenoxy)-1H-1,2,3-triazole-4-carboxylic Acid]
36 | 110 | O=C(O)c1nn[nH]c1Nc1cccc(C#CCC2CC2)c1 [Example 363, 5-(3-(3-Cyclopropylprop-1-ynyl)phenylamino)-1H-1,2,3-triazole-4-carboxylic Acid]
37 | 4 | COc1ccc(C#Cc2ccc(Oc3[nH]nnc3C(=O)O)cc2)cc1 [Example 280, 5-(4-(2-(4-Methoxyphenyl)ethynyl)phenoxy)-1H-1,2,3-triazole-4-carboxylic Acid]
38 | 5 | CS(=O)(=O)c1ccc(C#Cc2cc(F)cc(Oc3[nH]nnc3C(=O)O)c2)cc1 [Example 274, 5-(3-Fluoro-5-(2-(4-(methylsulfonyl)phenyl)ethynyl)phenoxy)-1H-1,2,3-triazole-4-carboxylic Acid]
39 | 10 | N#CCCC#Cc1cccc(Oc2[nH]nnc2C(=O)O)c1 [Example 350, 5-(3-(4-Cyanobut-1-ynyl)phenoxy)-1H-1,2,3-triazole-4-carboxylic Acid]
40 | 62 | CC(C)C#Cc1ccc(Oc2[nH]nnc2C(=O)O)cc1 [Example 9, 5-(4-(3-Methylbut-1-ynyl)phenoxy)-1H-1,2,3-triazole-4-carboxylic Acid]
41 | 23 | O=C(O)c1nn[nH]c1Oc1ccc(C#CC(F)(F)F)cc1 [Example 335, 5-(4-(3,3,3-Trifluoroprop-1-ynyl)phenoxy)-1H-1,2,3-triazole-4-carboxylic Acid]

Source: patent US11504367B2, “Compounds and methods for treating oxalate-related diseases” (OxaluRx, Inc., priority 2019, dated 2022)
